Source: patent US4717731A, “7H thieno[2,3-a]quinolizines, useful as α2 -andrenoceptor antagonist” (John Wyeth & Brother Limited, priority 1984, dated 1988)

Columns and labels:
α2 -adrenoceptor = assay: α2-adrenoceptor antagonistic activity on the rat field stimulated vas deferens preparation (vs clonidine); settings: for α2 /α1 selectivity [antilog of (α2 pA2 -α1 pA2)]: from vas deferens α2 pA2 and anococcygeus α1 pA2; for pA2 for α2 -adrenoceptor antagonistic activity: rat field stimulated vas deferens, agonist clonidine, Schild plot, 90 min
Procedure: The compounds of the invention are tested for α2 -adrenoceptor antagonistic activity on the rat field stimulated vas deferens preparation using a modification of the method of Drew, Eur. J. Pharmac., 1977, 42, 123-130. The procedure is described below.
Desheathed vasa deferentia from sexually mature rats were suspended in a 6 ml organ bath in Krebs solution at 37° and bubbled with 5% CO2 in oxygen. Platinum ring electrodes were positioned above and below the tissue for field stimulation, the stimulus parameters being 0.1 Hz 1 ms pulse width at supramaximal voltage. Twitch responses were recorded isotonically with a 0.5 g loading. Clonidine hydrochloride was used as the α-adrenoceptor agonist and cumulative concentration-response curves were constructed for the inhibition of twitch obtained with clonidine in the range 0.125 to 4 ng ml^-1. After washing out clonidine, the twitch response quickly recovered and an antagonist was then introduced into the Krebs reservoir. Clonidine concentration-response curves were repeated 90 min after introduction of the antagonist. The concentration of clonidine producing 50% inhibition of twitch before and after introduction of antagonist were obtained and the dose-ratio for clonidine was calculated. Various concentrations of the antagonists were used.
Chemother., 1959, 14, 48-58 and the values of pA2 and slope were calculated.

α1 -adrenoceptors = assay: α1 antagonistic activity on the isolated anococcygeus muscle of the rat (vs phenylephrine or methoxamine); settings: agonist phenylephrine or methoxamine, Schild method, 30 min
Excerpt: The compounds of the invention generally antagonise the α2 -adrenoceptors to a much greater extent than the α1 -adrenoceptors. The α1 antagonistic activity can be evaluated by a number of different methods. One method involves assessing the activity on the isolated anococcygeus muscle of the rat. The method is based on that of Gillespie, Br.J.Pharmac., 1972, 45, 404-416. In the procedure male rats (250-360 g) are killed by a blow on the head and bled. The two anococcygeus muscles are removed from their position in the midline of the pelvic cavity, where they arise from the upper coccygeal vertebrae. The muscles are suspended in 5 ml organ baths in Krebs solution containing 10^-4 M ascorbic acid; to prevent drug oxidation. The tissues are gassed with a 95% oxygen, 5% CO2 mixture and maintained at 37°. Longitudinal muscle contractions are recorded using isotonic transducers. Cumulative dose response curves are then obtained to phenylephrine or in some cases methoxamine, both agents being […] alpha adrenoceptor agonists. The concentration range of phenylephrine or methoxamine used is 0.02 to 0.8 μg.ml^-1. The agonist is then washed from the bath and the test drug added to the bathing medium at a concentration of 10^-6 M. After 30 min equilibration with the test drug a further agonist dose response curve is obtained. […]

Compound	α2 /α1 selectivity [antilog of (α2 pA2 -α1 pA2)] (α2 -adrenoceptor)	pA2 for α2 -adrenoceptor antagonistic activity (α2 -adrenoceptor)	pA2 values for α1 antagonistic activity (α1 -adrenoceptors)
CCS(=O)(=O)NCCN([C@@H]1CCN2CCc3ccsc3[C@@H]2C1)S(=O)(=O)CC (relative stereo) [Example 5, N-(4,5,8,9α,10,10aα-Hexahydro-7H-thieno[2,3-a]quinolizin-9-yl)-N-(2-ethanesulphonamidoethyl)ethane sulphonamide]	132	7.31	5.18
CCCS(=O)(=O)N(C)[C@@H]1CCN2CCc3ccsc3[C@@H]2C1 (relative stereo) [Example 2, N-(4,5,8,9,10,10aα-hexahydro-7H-thieno[2,3-a]quinolizin-9β-yl)-N-methylpropanesulphonamide]	40	7.5	5.9
